Source: patent US7713923B2, “Self-assembling peptides incorporating modifications and methods of use thereof” (Massachusetts Institute of Technology, priority 2003, dated 2010)

What was measured:
[1] = system: human aortic endothelial cells (HAEC); assay: HAEC proliferation and competition assays with soluble peptide motifs; assay type: cell-based; conditions: 100% RAD16-I, no soluble peptide, improved cell isolation
Procedure: Meanwhile, human aortic endothelial cells (HAEC) (CC-2535, Cambrex, MD) that had been maintained under standard culture conditions (passage 5-6) were harvested at 80% confluence using trypsin and loaded on top of the preformed peptide scaffolds at a cell density of 8×10^4 cells/cm^2 and cultured in the cell culture incubator at 37° C. with 5% CO2. Cell attachment assays were performed one hour after the initial cell loading. To perform the assays, the covering media was removed, and unattached cells were counted on a hematocytometer. Cell counting was performed by mechanically disrupting the scaffold containing cells by pipetting up and down and then counting cells on a hematocytometer after performing Trypan blue (T 9906, Sigma, MO) exclusion assay staining to assess cell viability. In some experiments, for comparison, EC were cultured on inserts coated with Matrigel or collagen (1.5 mg/ml, i.e. 0.15%) according to standard protocols.
Competition assays with free soluble peptide sequences. HAEC were cultured as described on peptide scaffolds in cell culture inserts as described above. For each scaffold, the corresponding soluble motif sequence, or one of the other motifs not present in the scaffold, was added to the media of HAEC cultures at a final concentration of 400 μg/ml. Half of the media was changed every other day. […] The next day, cell numbers were evaluated as described above. […]

[2] = Gel formation by visual observation; assay type: physicochemical; conditions: 1% solution, standing overnight at room temperature, no PBS
Procedure: The peptides used in the examples are based on the self-assembling peptide RAD16-I. The peptide was modified to include a variety of peptide motifs previously identified as mediating various biological activities. Physicochemical and structural properties of the peptides were assessed using a variety of techniques. Peptide solubility in aqueous solution was tested. The ability of the peptides to self-assemble into higher order structures was examined. In particular, the ability of the peptides to form various secondary structures (e.g., β-sheet) was determined using circular dichroism. The ability of the peptides to self-assemble into nanofibers was evaluated using atomic force microscopy (AFM). Gel formation was assessed by visual observation and rheology.
Gel formation. Each peptide solution at 1% was used to assess hydrogel formation. […] For all the soluble peptides, gel formation was readily observed upon the addition of equal volumes of phosphate buffered saline (PBS).

CC(=O)N[C@@H](CCCNC(=N)N)C(=O)N[C@@H](C)C(=O)N[C@@H](CC(=O)O)C(=O)N[C@@H](C)C(=O)N[C@@H](CCCNC(=N)N)C(=O)N[C@@H](C)C(=O)N[C@@H](CC(=O)O)C(=O)N[C@@H](C)C(=O)N[C@@H](CCCNC(=N)N)C(=O)N[C@@H](C)C(=O)N[C@@H](CC(=O)O)C(=O)N[C@@H](C)C(=O)N[C@@H](CCCNC(=N)N)C(=O)N[C@@H](C)C(=O)N[C@@H](CC(=O)O)C(=O)N[C@@H](C)C(N)=O [RAD16-I, AcN-(RADA)4-CONH2]
HAEC proliferation lower than on scaffolds made from peptide blends [1]: 2-2.5 fold
Increased viscosity by visual inspection [2]: Increased viscosity was observed
